In this test the target is mitochondrial ETC complex I (NADH-ubiquinone oxidoreductase) (Homo sapiens, UniProt O75251+O75306+P03886). Nature of the test: Oxygen consumption. It is filed as cell-based.

For `CC(C)(O)[C@H]1CC[C@](C)([C@@H](O)CC[C@](C)(O)[C@H]2CC[C@H]3O[C@@H]([C@]4(C)CC[C@@H](Br)C(C)(C)O4)CC[C@]3(C)O2)O1` [compound 1, thyrsiferol], inhibition was half-maximal at 3 µM (IC50).

(Values after paper PMC3139250 (Phytochemistry letters, 2011).)
